Patent US10611766B2, “Pyrazolopyrimidine derivatives as BTK inhibitors for the treatment of cancer” (Loxo Oncology, Inc., priority 2015, dated 2020)

Tested on: OCI-Ly10 human DLBCL cells
Assay: OCI-Ly10 anti-proliferative activity (Resazurin, 72 h)
Type: cell-based
Conditions: read-out: Proliferation OCI-Ly10-IC50
Method: Compounds were assayed for effects on the growth of OCI-Ly10 human DLBCL cells that are dependent on NFκB signalling. OCI-Ly10 cells were grown in suspension in T225 flasks, centrifuged and re-suspended in 2.5% FBS containing media. Cells were then plated at 7.5×10^3 cells per well in 96-well plates in varying concentrations of compound and incubated for 72 h at 37° C. An additional plate of cells to be used as the Day 0 read was seeded without compound addition, Resazurin was added to each well, incubated for 5 h and the fluorescence measured at 590 nm. After 72 h of compound treatment, Resazurin was added to each well of the compound treated plates, incubated for 5 h and the fluorescence measured at 590 nm. The IC50 was then calculated by subtracting the average Day 0 value from each well value from the treated plates, each treatment was then calculated as a percentage of the DMSO control and the percentages plotted against the inhibitor concentration to estimate the IC50 from log [Inhibitor] vs response using the Variable Slope model in Graphpad prism from Graphpad software (SanDiego, Calif.).

IC50: 10 to 100 nM
Compound: COc1ccccc1C(=O)NCc1ccc(-c2nn(C3CCC(C(=O)N(C)C)CC3)c3ncnc(N)c23)cc1 (single isomer, unassigned; isomer 1) [33-isomer 1]
